{"source": "patent US20250073235A1", "about": "“INHIBITION OF MAST CELL TUMOR NECROSIS FACTOR FOR THERAPEUTIC USE” (The University of Southern Mississippi, priority 2023, published 2025)", "molecules": {"B1": {"name": "sTNFR1: soluble TNF receptor 1 (Genscript), sequesters secreted TNF (protein, UniProt P19438 30-211, looked up)", "extracellular domain": "LVPHLGDREKRDSVCPQGKYIHPQNNSICCTKCHKGTYLYNDCPGPGQDTDCRECESGSFTASENHLRHCLSCSKCRKEMGQVEISSCTVDRDTVCGCRKNQYRHYWSENLFQCFNCSLCLNGTVHLSCQEKQNTVCTCHAGFFLRENECVSCSNCKKSLECTKLCLPQIENVKGTEDSGTT", "modifications": "extracellular domain"}}, "key": {"RBL-2H3 cells [1]": {"test_system": "RBL-2H3 cells", "test": "β-hexosaminidase secretion assay, IgE/TNP-BSA activated mast cells", "assay_type": "cell-based, rat", "settings": "for β-hexosaminidase secretion (% of total activity in the supernatant), normalized against DMSO: inhibitor added to sensitized RBL-2H3 cells 30 min before TNP-BSA, FIG. 19", "experimental": "(§1) Sub-confluent RBL-2H3 cells (85%) grown on a 6-well plate were sensitized with 0.5 μg/ml anti-TNP IgE (BD Biosciences) and activated by 25 ng/ml TNP^(26)-BSA (Santa-Cruz) in RPMI 1640 (Corning) containing 0.1% BSA as described. The supernatant (around 1 ml) was collected from resting (no exposure to IgE) and activated (IgE and TNP-BSA) cells respectively and centrifuged at 500 g for 5 min at 4° C. to clear any cell debris. In the meantime, the cells attached to the bottom of the 6-well plates were lysed in 1 ml of cell culture medium, RPMI 1640 containing 0.1% BSA and 0.5% Triton X-100 for 5 min at RT. The lysate was centrifuged at 15,000 g for 5 min at 4° C. to clear any Triton-insoluble biomass. The cleared supernatant or lysate was separated into 3 aliquots: 800 μl were lyophilized for TNF assay; 50 μl were stored at −20° C. for serotonin and histamine assays; and the rest was used immediately for β-hexosaminidase assay.\n(§2) β-hexosaminidase activity and TNF protein level were measured as commonly used in the art. To quantify histamine with an Enzyme Immunoassay (EIA) kit (EA213/96; Eagle Biosciences), the supernatant and cell lysates were diluted 100-fold in RPMI. Fifty μl of the diluted samples were then subject to acylation reaction and ELISA by following the manufacturer's instructions. To measure the level of serotonin, the supernatant and cell lysates were diluted 1:625 fold with standard buffer (EA630/96; Eagle Biosciences), 20 μl of which were subject to acylation and subsequent ELISA according to the manufacturer's instructions.\n(§3) The absolute value for the exocytosis of each mediator (V) was expressed as the percentage of the signal released into the supernatant (MS) relative to the total signal in the supernatant and in the lysate [V=MS/(MS+ML)%]. The value for IgE/allergen-dependent exocytosis was calculated by subtracting the value of the activated samples with the value of the resting samples (VE=VA−VR).\n(§4) RBL-2H3 cells and derivatives growing in 6-well plates were sensitized for 3 h with 0.5 μg/mL mouse anti-TNP ([…]) IgE (BD Pharmingen) and stimulated with 25 ng/mL of TNP(26)-BSA (Santa Cruz). β-hexosaminidase activities and TNF levels in the supernatant and the cell lysates were quantified as previously described. […]. Reverse transcription and PCRs RBL-2H3 cells (˜40% confluent) cultured in a 24-well plate were treated with 250 μL of 0.25% Trypsin-EDTA (Gibco) that was subsequently neutralized with 750 μL of complete medium. About […] were collected for RT-qPCR (quantitative PCR) using TaqMan Gene Expression Cells-to-CT Kit (ThermoFisher Scientific) according to the manufacturer's instructions. […]"}, "RBL-2H3 cells [2]": {"test_system": "RBL-2H3 cells", "test": "TNF secretion assay (ELISA), IgE/TNP-BSA activated mast cells", "assay_type": "cell-based, rat", "settings": "for TNF secretion (% of total TNF in the supernatant), normalized against DMSO: inhibitor added to sensitized RBL-2H3 cells 30 min before TNP-BSA, FIG. 19", "experimental": "as §1, §2, §3, §4"}, "RBL-2H3 cells [3]": {"test_system": "RBL-2H3 cells", "test": "total TNF protein level (ELISA), IgE/TNP-BSA activated mast cells", "assay_type": "cell-based, rat", "settings": "for total TNF level, normalized against DMSO: FIG. 19; for overall level of TNF (total TNF protein): 1 hour", "experimental": "as §1, §2\nRBL-2H3 cells and derivatives growing in 6-well plates were sensitized for 3 h with 0.5 μg/mL mouse anti-TNP ([…]) IgE (BD Pharmingen) and stimulated with 25 ng/mL of TNP(26)-BSA (Santa Cruz). β-hexosaminidase activities and TNF levels in the supernatant and the cell lysates were quantified as previously described. […]. Reverse transcription and PCRs RBL-2H3 cells (˜40% confluent) cultured in a 24-well plate were treated with 250 μL of 0.25% Trypsin-EDTA (Gibco) that was subsequently neutralized with 750 μL of complete medium. About […] were collected for RT-qPCR (quantitative PCR) using TaqMan Gene Expression Cells-to-CT Kit (ThermoFisher Scientific) according to the manufacturer's instructions. Fluorescently labeled, target-specific probes ((3-actin: Rn00667869_ml; TNFR1: Rn01492348_ml; and TNFR2: Rn00709830_ml) were purchased from Thermofisher Scientific. The Cq values of TNFRs were standardized against that of β-actin utilizing the Bio-Rad CFX Maestro software and then the relative levels of mRNA expression were determined. For electrophoresis, TNFR1 was amplified from cDNA (prepared with the same TaqMan Gene Expression Cells-to-CT Kit described earlier) using […]-3′ (SEQ ID NO: 11) and 5′-[…]-3′ (SEQ ID NO: 12) as forward and reverse primers, whereas TNFR2 was amplified using 5′-[…]-3′ (SEQ ID NO: 13) and 5′-[…]-3′ (SEQ ID NO: 14) as forward and reverse primers. PCR was conducted in a 20 μL mixture containing 1× One Taq Master Mix (NEB) and 200 nM of primers. Where specified, 1 μL of rat universal cDNA (BioChain) was used as positive control."}, "activated mast cells [4]": {"test_system": "activated mast cells", "settings": "reference [31]; cited from earlier work"}, "activated mast cells [5]": {"test_system": "activated mast cells", "settings": "reference [31]; cited from earlier work", "remark": "listed apart in the source"}, "[6]": {"settings": "inhibitor added to sensitized RBL-2H3 cells 30 min before TNP-BSA"}}, "note": "“Also recorded” adds a separate entry of the source.", "data": [{"molecule": "Cc1cc(NC(=O)c2cccc(NC(=O)/C=C/CN(C)C)c2)ccc1Nc1nccc(-c2cccnc2)n1", "note": "[JNK-IN-8]", "values": [{"measurement": "β-hexosaminidase secretion (% of total activity in the supernatant), normalized against DMSO", "setting": "RBL-2H3 cells [1]", "value": "without impacting"}, {"measurement": "TNF secretion (% of total TNF in the supernatant), normalized against DMSO", "setting": "RBL-2H3 cells [2]", "value": "without impacting"}, {"measurement": "total TNF level, normalized against DMSO", "setting": "RBL-2H3 cells [3]; [6]", "value": "diminished TNF level drastically"}]}, {"molecule": "CC#CCOc1ccc(S(=O)(=O)CC(c2ccc(CNS(C)(=O)=O)cc2)N(O)C=O)cc1", "note": "(centres unmarked) [KP-457]", "values": [{"measurement": "exocytosis of β-hexosaminidase", "setting": "RBL-2H3 cells [1]; sensitized RBL-2H3 cells, inhibitor added along with TNP-BSA, concentrations between 0.3 M and 10 μM, 1 hour, FIG. 18A", "value": "did not seem to affect"}, {"measurement": "amount of sTNF protein released into the supernatant", "setting": "RBL-2H3 cells [2]; sensitized RBL-2H3 cells, inhibitor added along with TNP-BSA, concentrations between 0.3 M and 10 μM, 1 hour, FIG. 18B", "value": "significantly reduced"}, {"measurement": "overall level of TNF (total TNF protein)", "setting": "RBL-2H3 cells [3]; allergen-triggered RBL-2H3 cells, inhibitor added along with TNP-BSA, FIG. 18C", "value": "inhibited the overall level of TNF; also recorded: TNF production is diminished"}]}, {"molecule": "CN(C)CCC=C1c2ccccc2CCc2ccccc21", "note": "[amitriptyline]", "values": [{"measurement": "histamine release", "setting": "activated mast cells [4]", "value": "specifically inhibit"}, {"measurement": "serotonin release", "setting": "activated mast cells [5]", "value": "without any influence"}]}, {"molecule": "CCOc1cc(C(=O)N2CCC(N3CCN(C)CC3)CC2)ccc1Nc1ncc2c(n1)N(S(C)(=O)=O)c1ccccc1C(=O)N2C", "note": "[AX-15836]", "values": [{"measurement": "reduction in total TNF level", "setting": "RBL-2H3 cells [3]; inhibitor added to sensitized RBL-2H3 cells 30 min before TNP-BSA, statistically significant, FIG. 19B", "value": 10, "unit": "%"}]}, {"molecule": "Cn1nccc1Nc1nccc(-c2ccn([C@H](CO)c3ccc(Cl)c(F)c3)c(=O)c2)n1", "note": "[Ravoxertinib/GDC-0994, Ravoxertinib]", "values": [{"measurement": "β-hexosaminidase secretion (% of total activity in the supernatant), normalized against DMSO", "setting": "RBL-2H3 cells [1]", "value": "inhibited"}, {"measurement": "TNF secretion (% of total TNF in the supernatant), normalized against DMSO", "setting": "RBL-2H3 cells [2]", "value": "inhibited"}, {"measurement": "total TNF level, normalized against DMSO", "setting": "RBL-2H3 cells [3]; [6]", "value": "inhibited"}]}, {"molecule": "Cc1ccc(-n2nc(C(C)(C)C)cc2NC(=O)Nc2ccc(OCCN3CCOCC3)c3ccccc23)cc1", "note": "[Doramapimod/BIRB 796, Doramapimod]", "values": [{"measurement": "β-hexosaminidase secretion (% of total activity in the supernatant), normalized against DMSO", "setting": "RBL-2H3 cells [1]", "value": "did not seem to affect exocytosis"}, {"measurement": "TNF secretion (% of total TNF in the supernatant), normalized against DMSO", "setting": "RBL-2H3 cells [2]", "value": "did not seem to affect exocytosis"}, {"measurement": "total TNF level, normalized against DMSO", "setting": "RBL-2H3 cells [3]; [6]", "value": "did not seem to affect exocytosis or significantly reduce TNF proliferation"}]}, {"molecule": "B1", "values": [{"measurement": "overall level of TNF (total TNF protein)", "setting": "RBL-2H3 cells [3]; sensitized RBL-2H3 cells incubated with sTNFR1 along with TNP-BSA, FIG. 17A", "value": "inhibited the overall level of TNF in a concentration dependent fashion"}, {"measurement": "overall level of TNF (total TNF protein)", "setting": "RBL-2H3 cells [3]; sensitized RBL-2H3 cells incubated with sTNFR1 along with TNP-BSA, FIG. 17A, listed as soluble TNFR1", "value": "inhibits antigen-elicited TNF production in a dosage-dependent fashion"}]}]}
